Entries after “also recorded” stand apart in the source; their conditions may differ.
Experiments:
Assay type in all cases: cell-based
[1] = system: deoxygenation-activated cation conductance in human SS red cells; experiment: On-cell patch clamp of deoxygenation-activated cation conductance, symmetric Na methanesulfonate
Protocol: (§1) Blood cell preparation: Human SS and AA blood was obtained under IRB-approved protocols of Children's Hospital and Beth Israel Deaconess Medical Center. After buffy coat removal and 5 washes in standard human red cell wash solution containing (in mM) 150 choline Cl, 1 MgCl, and 10 Tris-MOPS, pH 7.4, red cells were resuspended in storage solution containing (in mM) 145 KCl, 15 NaCl, and 10 HEPES, pH 7.4, then kept at 4° C. until used. Human red cells allowed to settle on coverslips were mounted on an inverted microscope in a 200 μl open chamber (WPI, Sarasota, Fla.) and superfused 15 min at room temperature by bath solution containing (in mM) 150 Na methanesulfonate, 10 Na EDTA, and 10 Na HEPES, pH 7.4.
Mouse red cells allowed to settle on coverslips were superfused 15 min with bath solution containing (in mM) either 150 mM Na methanesulfonate, 10 Na EDTA, and 10 Na HEPES, pH 7.4; or 140 NaCl, 4 KCl, 1CaCl2, 1 MgCl2, 10 Na HEPES, pH 7.4. Deoxygenation was achieved by switching superfusate to the same solution gassed ≧30 min prior to the experiment with 100% N2, and by flushing of the perfusion chamber with N2 during the deoxygenation period. The resulting bath pO2 was 18 mm Hg as measured by oxygen electrode (WPI). In the experiments of FIG. 1, deoxygenated cells were subsequently re-oxygenated by exposure to the same superfusate equilibrated with room air.
(§2) Washed human or mouse red cells in solution containing (in mM) 140 NaCl, 5 KCl, 1 CaCl2, 1 MgCl2, 10 Na HEPES, pH 7.4 were exposed for 1 hr on a rotary platform in a 37° C. incubator to 25 ppm carbon monoxide (CO) in 5% CO2. CO-exposed cells were then subjected to patch clamp or to calcium imaging experiments within 60 min after return to room air, using the solutions indicated.
(§3) On-cell patch clamp: Borosilicate pipettes (Corning 7052) pulled with a Narishige two stage puller or a Sutter P97 puller and fire-polished to resistances of 10-20 MΩ were front-filled and then backfilled. Symmetric bath and pipette solutions for studies of seal resistance stability during reversibility tests of the deoxygenation-activated conductance in SAD mouse red cells were (in mM) 140 NaCl, 4 KCl, 1 CaCl2, 1 MgCl2, 10 Na HEPES, pH 7.4. These conditions yielded tight seals in 13% of patch attempts on SAD cells. For study of deoxygenation-induced monovalent cation permeation in the absence of bath Ca^2+ and Mg^2+ recorded in SAD and Berkeley mouse cells and in human cells, symmetric bath and pipette solutions contained (in mM) 150 Na methanesulfonate, 10 Na EDTA, and 10 Na HEPES, pH 7.4. These conditions yielded tight seals in 16% of patch attempts on SAD mouse red cells, 26% of attempts on Berkeley mouse cells, and 30% of attempts on human SS cells. For study of Ca^2+ permeation in human SS cells, bath and pipette solutions contained (in mM) 100 CaCl2, 10 Na HEPES, pH 7.4. These conditions yielded tights seals on 44% of attempts. For all conditions tested in human red cells, 70% of tight seals were sustained through the solution change accompanying deoxygenation to allow recording of current activity.
(§4) On-cell patch currents were recorded with the Axopatch 1-D amplifier (Axon Instruments/Molecular Devices, Sunnyvale, Calif.). Holding potential was −Vp=−50 mV (expressed as the negative of the pipette potential (e.g., equivalent to the intracellular potential with respect to the pipette). To determine current-voltage relationships (I-V curves) in Fetchex or Clampex (PCLAMP, Axon Instruments), the realtime control window in gap-free mode was used to record current traces of 10-30 sec duration at holding potentials ranging from −100 to +100 mV, in 25 mV increments. The bath reference electrode was a silver chloride wire with a 3 M KCl agar bridge. Data was filtered at 500 Hz, digitized at 2 kHz by Clampex, and analyzed offline by Fetchan and Pstat or by Clampfit subroutines of PCLAMP. Holding potentials in on-cell patch experiments were expressed as −Vp, the negative of the pipette potential.

[2] = system: LPA-induced cation conductance in human SS red cells; experiment: On-cell patch clamp of LPA-induced cation conductance
Description: as §3, §4
Deoxygenation-activated flickering cation conductance observed in human SS cells contrasted with the prolonged channel openings produced by 5 μM LPA (FIG. 10A). In SS cells, LPA increased NPo […], from 0.04±0.03 to 0.82±0.18 (n=8, p<0.001; Na methanesulfonate in bath and pipette, −Vp=−50 mV; FIG. 10B). LPA-induced cation conductance was 96% inhibited by 100 uM dipyridamole in the pipette, and 97% inhibited by 1 μM GsMTx-4 in the pipette (both n=4).

KCa3.1 = biological target: T1, KCa3.1 (Homo sapiens, UniProt O15554)
T1 construct: KCa3.1 activity stimulated in intact human AA cells by 1 μM A23187; endogenous in cells; host or cells: intact human AA red blood cells

human SS red cells = experiment: Fluo-3 fluorescence measurement of [Ca2+]i during deoxygenation, human SS cells; conditions: CO preincubation, no continued CO exposure
Protocol: as §1, §2
(§5) Fluorescence measurements of cytosolic [Ca^2+] ([Ca^2+]i): After removal of plasma and buffy coat by aspiration, human or mouse red cells were washed three times at room temperature and suspended in modified Hank's solution containing (in mM), 137 NaCl, 5.4 KCl, 1 CaCl2, 1 MgCl2, 0.8 NaK phosphate, 5.6 glucose, and 10 Na HEPES, pH 7.4. Dilute cell suspensions were settled on polylysine-coated coverslips forming the bottom of an open perfusion chamber (2.5 cm diameter, 1 cm depth) and washed again 3 times.
Measurement of relative changes in [Ca^2+]i by Fluo-3 fluorescence emission was previously validated in intact human (Yang et al. 2000, Blood, 95(7):2421-2425; Andrews et al. 2002, Blood, 199(9):3392-3399) and mouse red cells (Akel et al. 2007, Amer. J. Physiol., 292(5):C1759-1767). […] Fluorescence emission (proportional to [Ca^2+]i) from a 535ds20 bandpass filter was collected from all attached single cells within the arbitrarily selected visual field. […]
(§6) Fluo-3 fluorescence from attached cells on each coverslip was recorded 60 sec in room air and then for 10 min after onset of perfusion chamber flushing with humidified 100% N2. The normalized increase in Fluo-3 fluorescence in SS cells subjected to this deoxygenation procedure was indistinguishable from that observed during superfusion of cells in a closed perfusion chamber via syringe pump with bath previously bubbled for 60 min with 100% N2 (n=62 cells from 2 SS patients, not shown). The y-axis value of 0% change in Fluo-3 fluorescence intensity represented mean intensity recorded from all cells within the coverslip visual field during the 60 sec prior to deoxygenation.

[3] = system: SAD sickle mouse red cells; experiment: Fluo-3 fluorescence measurement of [Ca2+]i during deoxygenation, SAD cells
Protocol: Blood was withdrawn by cardiac puncture or from the tail vein of C57B16/J wildtype mice, SAD sickle mice, or Berkeley sickle mice into heparinized syringes by IACUC-approved protocols of Beth Israel Deaconess Medical Center. Buffy coat-depleted cells were washed 5 times in standard mouse red cell wash solution containing (in mM) 172 choline Cl, 10 sucrose, 10 Na Tris-MOPS, pH 7.4, resuspended in storage solution, and kept at 4° C. until use.
as §5
Measurement of relative changes in [Ca^2+]i by Fluo-3 fluorescence emission was previously validated in intact human (Yang et al. 2000, Blood, 95(7):2421-2425; Andrews et al. 2002, Blood, 199(9):3392-3399) and mouse red cells (Akel et al. 2007, Amer. J. Physiol., 292(5):C1759-1767). Attached red cells were loaded in the dark with the fluorescent non-ratiometric Ca^2+ indicator Fluo-3-AM (10 μM, Molecular Probes, Eugene, Oreg.) at 37° C. for 1 hr, then washed and incubated 15 min further to allow de-esterification of intracellular dye. The open perfusion chamber containing dye-loaded cells was mounted on an Olympus IMT-2 inverted epifluorescence microscope equipped with CoolSNAP CCD camera (Photometrics, Tucson, Ariz.). Fluo-3 in cells imaged through a 60× objective was excited by mercury-xenon illumination passed through a 495ds20 filter. Fluorescence emission (proportional to [Ca^2+]i) from a 535ds20 bandpass filter was collected from all attached single cells within the arbitrarily selected visual field. Emission image acquisition was controlled by a Metafluor digital imaging system (Universal Imaging, West Chester, Pa.).
as §6

T1 sequence (O15554 whole entry): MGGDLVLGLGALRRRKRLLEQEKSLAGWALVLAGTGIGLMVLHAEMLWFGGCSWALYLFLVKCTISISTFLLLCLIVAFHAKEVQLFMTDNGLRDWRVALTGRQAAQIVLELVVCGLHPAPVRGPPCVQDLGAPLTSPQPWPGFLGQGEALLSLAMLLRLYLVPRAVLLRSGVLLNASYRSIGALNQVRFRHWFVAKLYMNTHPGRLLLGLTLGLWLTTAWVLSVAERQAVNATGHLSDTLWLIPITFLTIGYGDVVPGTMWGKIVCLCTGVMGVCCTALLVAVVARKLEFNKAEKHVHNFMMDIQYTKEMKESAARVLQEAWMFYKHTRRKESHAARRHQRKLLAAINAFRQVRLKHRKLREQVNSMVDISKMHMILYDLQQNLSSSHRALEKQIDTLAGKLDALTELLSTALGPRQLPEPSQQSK

OCCN(CCO)c1nc(N2CCCCC2)c2nc(N(CCO)CCO)nc(N3CCCCC3)c2n1 [dipyridamole]
effect on deoxygenation-induced activation of cation conductance ([1]; 100 μM in the pipette): prevented
NPo after deoxygenation (hypoxic) ([1]; 100 μM in the pipette, n=4): 0.004±0.002
Normoxic NPo ([1]; 100 μM in the pipette, n=4): 0.00
effect on LPA-induced increase in NPo ([2]; 100 μM in the pipette): prevented
inhibition at 100 µM ([2]; Homo sapiens, 100 uM in the pipette, 5 μM LPA, n=4): 96%

Clc1ccccc1C(c1ccccc1)(c1ccccc1)n1ccnc1 [clotrimazole, reference compound]
effect on A23187-stimulated cell shrinkage (KCa3.1): completely inhibited

[C-]#[O+] [CO, carbon monoxide]
NPo upon deoxygenation ([1]; CO-pretreated cells, n=4): 0.0625±0.0375
Normoxic NPo ([1]; CO-pretreated cells, n=4): 0.0377±0.0375
effect on activation of conductance upon deoxygenation ([1]; prior CO exposure of SS cells): prevented
effect on [Ca2+]i elevation by deoxygenation (human SS red cells): blocked; also recorded: inhibited

[Na+].[Na+].[Na+].[O]=[V]([O-])([O-])[O-] [vanadate, Na vanadate]
effect on deoxygenation-induced [Ca2+]i elevation ([3]; 50 μM in bath, acute deoxygenation): enhanced; also recorded: further elevated
time to plateau [Ca2+]i after deoxygenation ([3]; 50 μM, continued presence): < 2 min
[Ca2+]i-dependent Fluo-3 emission increase ([3]; 50 μM, 5 min normoxic preincubation of SAD cells): 12.8±1.8%
late [Ca2+]i relative to plateau ([3]; 50 μM, after ~4 min longer at plateau): twice the previous plateau value

O=S(=O)(O)c1cc(N=C=S)ccc1C=Cc1ccc(N=C=S)cc1S(=O)(=O)O [DIDS, 4,4′-diisothiocyanatostilbene-2,2′-disulfonic acid]
effect on deoxygenation-induced activation of cation conductance ([1]; 100 μM in the pipette): prevented; also recorded: blocked
NPo after deoxygenation (hypoxic) ([1]; 100 μM in the pipette, n=4): 0.001±0.001
Normoxic NPo ([1]; 100 μM in the pipette, n=4): 0.002±0.002

Source: US9211313B2, “Methods and compound to inhibit Ca2+ permeable cation conductance” (priority 2011, dated 2015)
